≈ marks a conversion by molar mass, not a printed value. Read-outs that look alike come from different tables or passages of the source.
Tests used:
[1] = Oral PK, male Cynomolgus monkeys 25 mg/kg; conditions: Liquid formulation 2, oral 25 mg/kg
[2] = Mouse PK, intravenous 0.5 mg/kg; assay type: in vivo; conditions: i.v. 0.5 mg/kg, male FVB mice, mixture
[3] = Solubility of 15u in aqueous solution and vehicles
[4] = tested on: MYC-CAP-CR cells; assay: Long-term clonogenic assay, MYC-CaP-CR; assay type: cell-based, murine; conditions: 1 μM Senexin B, 1 μM 15u, 5 μM enzalutamide
Text: MYC-CaP-CR cells (Ellis L. et al., 2012. Prostate 72(6):587-591) were selected for castration resistance from genetically engineered MYC-CaP cells that express MYC from an AR-responsive promoter (Watson P A, et al., 2005. Cancer Res 65(24):11565-11571). Castration resistance in these cells is associated with the overexpression of full-length AR rather than an AR variant, such as AR-V7 in 22rv1 (Olson B M, et al., 2017. Cancer immunology research 5(12):1074-1085).

[5] = Oral PK of a mixture of 15w and 15u, 30 mg/kg, female CD1 mice; conditions: oral 30 mg/kg each
[6] = molecular target: CSNK1E (Homo sapiens, UniProt P49674); assay: Kd Elect binding assay (DiscoverX)
[7] = tested on: CDK8/19; assay: NFκB reporter assay in parental 293 reporter cells; assay type: cell-based
Text: We have used a cell-based assay to measure the inhibition of CDK8/19 activity by thienopyridine derivatives. This assay, based on the role of CDK8/19 in NFκB-driven transcription (Chen, 2017), measures the effects of CDK8/19 on the expression of firefly luciferase reporter from a NFκB-dependent promoter in 293 cells. Lentiviral vector pHAGE-NFKB-TA-LUC-UBC-dTomato-W (Addgene #49335) was introduced into 293 cells and a clonal cell line showing the strongest induction of luciferase expression upon TNFα treatment was established and used as the reporter cell line. As a control for CDK8/19 dependence of NFκB inhibition, we have also introduced the same reporter construct into 293 cells with CRISPR/CAS9 knockout of both CDK8 and CDK19.
FIG. 2C and Table 1 compares the IC50 values for different thienopyridines measured in the NFκB reporter assay in parental 293-derived reporter cell line to the cell-based activity values measured for the same compounds by Saito (2013) based on their effect on alkaline phosphatase (ALPase), an indicator of differentiation to osteoblasts in the mouse bone marrow stromal cell line ST2. The latter effects are expressed as EC200, a concentration that enhances ALPase activity to 200% of control.

[8] = tested on: luciferase-expressing MV4-11 cells; assay: MV4-11 leukemia in female NSG mice (BLI); assay type: in vivo, mouse; conditions: for inhibition of leukemia growth: 23 days, BLI
[9] = Oral PK by formulation, male FVB mice 50 mg/kg; conditions: for Elimination rate k: male FVB
[10] = molecular target: T1, PFPK5(P. falciparum) (Plasmodium falciparum, UniProt P61075); assay: KINOMEscan scanMAX; assay type: binding; conditions: 2000 nM
T1 construct: purchased KINOMEscan (DiscoveRx) scanMAX panel
Text: (§1) Nat. Biotechnol. 23, 329-336 (2005).
(§2) Percent Control (% Ctrl).
(§3) % Ctrl=100×(TS−CPOS)/(CNEG−CPOS) (eqn 1)

[11] = tested on: FLT3(ITD, F691L); assay: KINOMEscan scanMAX; assay type: binding; conditions: 2000 nM
Text: as §1, §2, §3

[12] = molecular target: T2, CDC2L5 (Homo sapiens, UniProt Q14004); assay: KINOMEscan scanMAX; assay type: binding; conditions: CDC2L5, 2000 nM
T2 construct: purchased DiscoverX (KINOMEscan scanMAX service)
Text: as §1, §2, §3

[13] = molecular target: T3, PKNB(M. tuberculosis) (Mycobacterium tuberculosis, UniProt P9WI81); assay: KINOMEscan scanMAX; assay type: binding; conditions: 2000 nM
T3 construct: purchased DiscoveRx (KINOMEscan scanMAX panel)
Text: as §1, §2, §3

[14] = molecular target: T4, PFCDPK1(P. falciparum) (Plasmodium falciparum, UniProt P62344); assay: KINOMEscan scanMAX; assay type: binding; conditions: 2000 nM
T4 construct: DNA label (qPCR read-out); purchased DiscoveRx (KINOMEscan scanMAX)
Text: as §1, §2, §3

[15] = molecular target: T5, PRP4 (Homo sapiens, UniProt Q13523); assay: KINOMEscan scanMAX; assay type: binding; conditions: PRP4, 2000 nM
T5 construct: DNA label (qPCR read-out); purchased DiscoverX (KINOMEscan)
Text: as §1, §2, §3

[16] = tested on: FLT3(ITD); assay: KINOMEscan scanMAX; assay type: binding; conditions: 2000 nM
Text: as §1, §2, §3

[17] = tested on: FLT3(ITD, D835V); assay: KINOMEscan scanMAX; assay type: binding; conditions: 2000 nM
Text: as §1, §2, §3

[18] = MTD, medicated diet 4 or 5 weeks, CD-1 mice; assay type: in vivo, mouse; conditions: female CD-1 mice, 1000 ppm medicated diet, first week
Description: In another long-term MTD in vivo assay, groups of male and female CD-1 mice were fed regular diet (control) or 15u-medicated diet (500 ppm or 1000 ppm) for 4 or 5 weeks (FIG. 16B). The daily doses of 500 ppm and 1000 ppm groups were estimated to be about 50-100 mg/kg and 100-200 mg/kg, respectively, based on daily diet consumption.

CSNK1E, sequence (P49674 whole entry): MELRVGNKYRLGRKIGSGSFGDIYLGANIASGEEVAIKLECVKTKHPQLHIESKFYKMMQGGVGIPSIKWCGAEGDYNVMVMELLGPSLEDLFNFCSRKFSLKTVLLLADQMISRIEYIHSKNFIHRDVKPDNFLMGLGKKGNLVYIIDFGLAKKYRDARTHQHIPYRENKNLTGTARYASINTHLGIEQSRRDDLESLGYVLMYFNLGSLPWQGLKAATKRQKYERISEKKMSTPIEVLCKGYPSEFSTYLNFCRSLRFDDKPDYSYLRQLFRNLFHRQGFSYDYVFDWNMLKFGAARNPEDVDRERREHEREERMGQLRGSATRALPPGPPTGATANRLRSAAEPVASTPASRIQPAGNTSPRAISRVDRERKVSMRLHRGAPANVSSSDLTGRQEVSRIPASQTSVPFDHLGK
T4 sequence (P62344 whole entry): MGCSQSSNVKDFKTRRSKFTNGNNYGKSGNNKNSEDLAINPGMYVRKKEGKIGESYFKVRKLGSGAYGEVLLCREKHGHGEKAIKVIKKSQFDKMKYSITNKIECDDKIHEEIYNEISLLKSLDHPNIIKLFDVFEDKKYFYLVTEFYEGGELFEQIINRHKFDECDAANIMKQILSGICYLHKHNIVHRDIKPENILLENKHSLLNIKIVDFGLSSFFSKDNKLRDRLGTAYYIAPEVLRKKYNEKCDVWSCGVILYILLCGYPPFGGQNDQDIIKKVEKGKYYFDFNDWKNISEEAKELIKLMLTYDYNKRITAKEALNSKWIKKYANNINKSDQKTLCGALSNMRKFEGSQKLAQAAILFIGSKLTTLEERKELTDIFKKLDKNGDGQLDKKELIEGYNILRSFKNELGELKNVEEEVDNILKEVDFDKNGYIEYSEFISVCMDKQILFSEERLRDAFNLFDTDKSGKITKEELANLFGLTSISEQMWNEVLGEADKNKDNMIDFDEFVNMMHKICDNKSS
T1 sequence (P61075 whole entry): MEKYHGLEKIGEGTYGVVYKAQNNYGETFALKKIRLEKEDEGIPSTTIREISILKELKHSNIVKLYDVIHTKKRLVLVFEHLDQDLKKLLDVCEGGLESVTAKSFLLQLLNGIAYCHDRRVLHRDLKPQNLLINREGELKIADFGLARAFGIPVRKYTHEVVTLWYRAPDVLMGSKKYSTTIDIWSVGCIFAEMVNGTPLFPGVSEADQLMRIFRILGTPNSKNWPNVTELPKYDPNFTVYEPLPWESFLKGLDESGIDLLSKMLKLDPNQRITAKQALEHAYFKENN
T5 sequence (Q13523 whole entry): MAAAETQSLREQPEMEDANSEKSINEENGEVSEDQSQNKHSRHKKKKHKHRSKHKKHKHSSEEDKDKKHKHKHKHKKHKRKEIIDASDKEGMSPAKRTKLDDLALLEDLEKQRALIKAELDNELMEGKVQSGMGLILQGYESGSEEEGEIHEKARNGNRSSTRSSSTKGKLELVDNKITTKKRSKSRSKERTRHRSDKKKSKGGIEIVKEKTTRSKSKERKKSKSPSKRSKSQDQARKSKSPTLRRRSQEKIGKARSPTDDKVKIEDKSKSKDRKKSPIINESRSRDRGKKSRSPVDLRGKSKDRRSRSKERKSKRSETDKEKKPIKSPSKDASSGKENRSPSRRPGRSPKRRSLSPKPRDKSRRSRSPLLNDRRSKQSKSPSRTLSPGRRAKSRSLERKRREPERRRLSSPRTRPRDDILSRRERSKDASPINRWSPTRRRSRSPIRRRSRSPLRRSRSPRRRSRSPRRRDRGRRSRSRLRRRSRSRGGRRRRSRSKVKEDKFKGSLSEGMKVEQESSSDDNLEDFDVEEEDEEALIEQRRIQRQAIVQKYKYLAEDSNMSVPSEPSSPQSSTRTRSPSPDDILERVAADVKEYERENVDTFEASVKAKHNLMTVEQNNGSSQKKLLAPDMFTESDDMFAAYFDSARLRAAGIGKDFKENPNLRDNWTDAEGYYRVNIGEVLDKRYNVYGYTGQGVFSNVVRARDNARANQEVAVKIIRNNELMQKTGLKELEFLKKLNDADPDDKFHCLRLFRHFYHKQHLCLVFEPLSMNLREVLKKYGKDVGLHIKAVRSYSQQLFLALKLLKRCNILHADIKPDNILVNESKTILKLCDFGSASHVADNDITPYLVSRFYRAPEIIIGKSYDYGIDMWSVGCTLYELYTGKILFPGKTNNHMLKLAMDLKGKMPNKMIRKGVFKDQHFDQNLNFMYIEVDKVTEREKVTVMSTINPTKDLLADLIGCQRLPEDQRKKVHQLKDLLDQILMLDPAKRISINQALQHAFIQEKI
T3 sequence (P9WI81 whole entry): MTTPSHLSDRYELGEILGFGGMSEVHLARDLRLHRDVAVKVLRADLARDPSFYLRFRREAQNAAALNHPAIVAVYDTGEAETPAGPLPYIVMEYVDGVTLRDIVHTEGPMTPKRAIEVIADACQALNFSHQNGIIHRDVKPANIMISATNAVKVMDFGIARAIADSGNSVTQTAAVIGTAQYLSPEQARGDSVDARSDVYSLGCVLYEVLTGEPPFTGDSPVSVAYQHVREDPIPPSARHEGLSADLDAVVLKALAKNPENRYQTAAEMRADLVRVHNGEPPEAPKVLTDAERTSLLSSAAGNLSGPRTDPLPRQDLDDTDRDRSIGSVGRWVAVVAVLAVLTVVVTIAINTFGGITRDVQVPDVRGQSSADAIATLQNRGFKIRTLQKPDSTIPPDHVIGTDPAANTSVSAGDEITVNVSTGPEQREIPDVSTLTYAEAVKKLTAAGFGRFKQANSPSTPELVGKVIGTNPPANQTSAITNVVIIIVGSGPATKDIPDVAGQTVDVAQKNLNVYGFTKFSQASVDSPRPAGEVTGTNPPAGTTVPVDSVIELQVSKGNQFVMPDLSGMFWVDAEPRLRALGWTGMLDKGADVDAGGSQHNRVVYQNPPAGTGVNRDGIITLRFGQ
T2 sequence (Q14004 whole entry): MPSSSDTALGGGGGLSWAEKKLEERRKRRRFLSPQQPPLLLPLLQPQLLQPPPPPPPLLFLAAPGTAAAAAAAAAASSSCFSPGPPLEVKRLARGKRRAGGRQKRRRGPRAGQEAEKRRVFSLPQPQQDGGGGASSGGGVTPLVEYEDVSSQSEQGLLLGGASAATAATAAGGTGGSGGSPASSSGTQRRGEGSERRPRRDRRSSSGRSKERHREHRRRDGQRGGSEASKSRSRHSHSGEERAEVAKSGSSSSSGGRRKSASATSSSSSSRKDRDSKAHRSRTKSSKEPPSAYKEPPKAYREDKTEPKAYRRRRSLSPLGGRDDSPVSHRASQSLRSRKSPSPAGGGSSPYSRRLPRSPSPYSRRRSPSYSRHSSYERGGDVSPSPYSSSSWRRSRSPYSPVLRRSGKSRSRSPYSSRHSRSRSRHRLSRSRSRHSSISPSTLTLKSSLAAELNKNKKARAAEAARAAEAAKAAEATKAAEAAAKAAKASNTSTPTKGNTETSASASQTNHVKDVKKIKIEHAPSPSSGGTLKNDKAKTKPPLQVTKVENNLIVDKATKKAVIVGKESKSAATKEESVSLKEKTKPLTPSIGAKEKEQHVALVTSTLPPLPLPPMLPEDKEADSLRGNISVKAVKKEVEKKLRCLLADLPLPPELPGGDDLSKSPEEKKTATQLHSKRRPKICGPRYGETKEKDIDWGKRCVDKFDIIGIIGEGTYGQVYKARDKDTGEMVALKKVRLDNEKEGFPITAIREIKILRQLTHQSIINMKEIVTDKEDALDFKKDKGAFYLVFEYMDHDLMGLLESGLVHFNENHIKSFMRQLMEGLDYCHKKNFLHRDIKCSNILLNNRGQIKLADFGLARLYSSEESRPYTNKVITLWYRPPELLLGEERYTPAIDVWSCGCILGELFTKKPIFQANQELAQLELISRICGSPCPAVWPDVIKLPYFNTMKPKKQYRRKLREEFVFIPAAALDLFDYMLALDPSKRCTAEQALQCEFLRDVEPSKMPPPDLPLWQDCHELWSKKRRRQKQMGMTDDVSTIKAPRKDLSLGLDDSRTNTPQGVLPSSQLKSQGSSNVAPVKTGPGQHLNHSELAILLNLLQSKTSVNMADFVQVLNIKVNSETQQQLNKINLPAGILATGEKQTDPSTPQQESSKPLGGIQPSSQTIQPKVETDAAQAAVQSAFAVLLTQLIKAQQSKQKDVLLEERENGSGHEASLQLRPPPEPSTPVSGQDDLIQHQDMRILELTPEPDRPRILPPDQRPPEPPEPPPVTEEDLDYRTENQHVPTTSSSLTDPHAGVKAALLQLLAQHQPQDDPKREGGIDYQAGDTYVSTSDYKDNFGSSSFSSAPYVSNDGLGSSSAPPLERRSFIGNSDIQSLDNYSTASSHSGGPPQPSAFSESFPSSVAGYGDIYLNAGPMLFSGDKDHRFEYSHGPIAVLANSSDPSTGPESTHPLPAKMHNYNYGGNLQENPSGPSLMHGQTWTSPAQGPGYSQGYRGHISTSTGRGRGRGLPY

## CN(C)C(=O)c1ccc(N2CCCN(c3ccnc4sc(C(N)=O)c(N)c34)CC2)cc1 [Compound 15u, 3-amino-4-(4-(4-(dimethylcarbamoyl)phenyl)-1,4-diazepan-1-yl)thieno[2,3-b]pyridine-2-carboxamide]
[1]
  adverse effects: no adverse effects were observed
[2]
  Elimination rate: 1.98 h⁻¹
[3]; 5% DMSO, 20% HPBCD
  amount of the compound in the liquid phase: 0.2 mg/mL
[3]; Liquid formulation 1, pH 2.1, aqueous with cosolvent or surfactant or cyclodextrin
  solubility: ~5000 µg/mL (≈ 11.4 mM)
[3]; Liquid formulation 2, organic solvent or mixture
  solubility: ≤ 20000 µg/mL
[3]; aqueous solution, pH 7, water
  solubility: < 10 µg/mL
[4]
  MYC-CaP-CR colony formation: decreased MYC-CaP-CR colony formation
[5]
  average serum concentration at the latest timepoint (8 hrs) as % of Cmax: 64.4 % of Cmax
[6]
  Kd: 280 nM
[7]; NFκB Activity Assay as described in Example 1, read-out: Inhibition Potency HEK293-NFkB-Luc Assay
  IC50: 10.3 nM
[7]; parental 293-derived reporter cell line, read-out: NFκB activity Assay IC50
  IC50: 10 nM
[8]; 30 mg/kg twice daily by gavage
  inhibition of leukemia growth: 94%
[8]; medicated chow 1 g/kg
  inhibition of leukemia growth: 99.7%
[8]; oral gavage
  survival post treatment: superior survival rates
[9]; LF-V#1, oral 50 mg/kg
  Elimination rate k: 0.13 h⁻¹
[9]; Sus-V#1, oral 50 mg/kg
  Elimination rate k: 0.25 h⁻¹
[9]; oral 50 mg/kg, male FVB mice
  increase of AUC, Liquid formulation 1 vs Suspension Vehicle 1: 2.3 fold
  increase of t1/2, Liquid formulation 1 vs Suspension Vehicle 1: ~2 fold
[10]
  % Ctrl: 68 % Ctrl
[11]
  % Ctrl: 95 % Ctrl
[12]
  % Ctrl: 71 % Ctrl
[13]
  % Ctrl: 100 % Ctrl
[14]
  % Ctrl: 94 % Ctrl
[15]
  % Ctrl: 100 % Ctrl
[16]
  % Ctrl: 82 % Ctrl
[17]
  % Ctrl: 41 % Ctrl
[18]
  weight loss: 5-10%

— patent US20220226343A1, “3-AMINO-4-[4-[4 (DIMETHYLCARBAMOYL) PHENYL]-1,4-DIAZEPAN-1-YL]THIENO[2,3-B]PYRIDINE-2-CARBOXAMIDE FOR USE IN CANCER THERAPY AND FORMULATIONS COMPRISING THE SAME” (University of South Carolina, priority 2019, published 2022)
